These antisense oligonucleotides have a phosphorothioate backbone; sugars and methylation of C are not fully specified.
Note: test concentration or dose not given here.

One series has as its target GNAS. As to conditions: ASO.
The sequence TGCTGCTGCTGTTTTATTTA registered a remaining target (mRNA or protein) (fraction of control) of 0.62.

Regarding TCATTTGTTTCTTTTATTTC, the remaining target (mRNA or protein) (fraction of control) was 0.85.

Take TATTTATTTCATTTGTTTCT: the remaining target (mRNA or protein) (fraction of control) is not below 1.

Sequence TTTCATTTGTTTCTTTTATT displayed a remaining target (mRNA or protein) (fraction of control) not below 1.

TTTGGAACATCTAAGCAAGC yielded a remaining target (mRNA or protein) (fraction of control) of 0.97.

TTCTTTTATTTCATTTTATT gave a remaining target (mRNA or protein) (fraction of control) not below 1.

Regarding TTTGTTTGCTGCTGCTGTTT, the remaining target (mRNA or protein) (fraction of control) turned out to be 0.96.

As to TGCTGCTGTTTTATTTATTT, the remaining target (mRNA or protein) (fraction of control) was not below 1.

TGTTCTCAGTGTCCACAGCG came in with a remaining target (mRNA or protein) (fraction of control) of 0.39.

The sequence GTTTCGCAAAATCACTCGGG registered a remaining target (mRNA or protein) (fraction of control) of 0.5.

In turn, ATTTCATTTGTTTCTTTTAT gave a remaining target (mRNA or protein) (fraction of control) of 0.76.

The target of the next series is GNA13. As to conditions: ASO.
In turn, AAGCATTTTGAAAGGAAC had a remaining target (mRNA or protein) (fraction of control) not below 1.

CGGACCGCGACGGCAGGA returned a remaining target (mRNA or protein) (fraction of control) of 0.58.

Take CGCCTCGCCGCCTCTCCG: the remaining target (mRNA or protein) (fraction of control) amounted to 0.75.

Take TGCCTTTGGTGGGTCTTC: the remaining target (mRNA or protein) (fraction of control) was 0.51.

Take GAGCATCAACCAGCACCC: the remaining target (mRNA or protein) (fraction of control) came out at 0.11.

The sequence GCCGCCGCCGCCGCCTCG registered a remaining target (mRNA or protein) (fraction of control) not below 1.

Sequence TCTGGTTCTCCAAGTTTA gave a remaining target (mRNA or protein) (fraction of control) of 0.25.

In the case of CGTAGAATTAAGATTGTT, the remaining target (mRNA or protein) (fraction of control) is not below 1.

For TATCCTTCACGTCGCGGA, the remaining target (mRNA or protein) (fraction of control) is not below 1.

The sequence TGTTCAGAGACTCTGTAA had a remaining target (mRNA or protein) (fraction of control) of 0.47.

On to TCACCAGCCGCTTCACAT, for which the remaining target (mRNA or protein) (fraction of control) was found to be 0.23.

For CCCGTGGATGATCCGCAT, the remaining target (mRNA or protein) (fraction of control) is not below 1.

In turn, AAAAGATATTAAAACAGC gave a remaining target (mRNA or protein) (fraction of control) not below 1.

Regarding ACTCGTCAGCAGGCAGCC, the remaining target (mRNA or protein) (fraction of control) is not below 1.

Turning to TCGAAACATTCAAACCAA, the remaining target (mRNA or protein) (fraction of control) worked out at 0.42.

On to AGCAGCAGGATCTTCACC, for which the remaining target (mRNA or protein) (fraction of control) came out at 0.54.

Sequence GCAAGCAGAATATCTTGT showed a remaining target (mRNA or protein) (fraction of control) of 0.5.

CGATTGGTCAGTCGATCT returned a remaining target (mRNA or protein) (fraction of control) not below 1.

As to AAGGTGGACTTGCCGCTC, the remaining target (mRNA or protein) (fraction of control) amounted to 0.24.

Sequence CATAAGCACCTGGTCAAA registered a remaining target (mRNA or protein) (fraction of control) of 0.1.

Turning to CCTTGTTTCCACCATTCC, the remaining target (mRNA or protein) (fraction of control) worked out at 0.07.

The sequence CGAGACAGGCATTTGTCG gave a remaining target (mRNA or protein) (fraction of control) not below 1.

The sequence CTTTTCCCGAGACAGGCA showed a remaining target (mRNA or protein) (fraction of control) of 0.08.

In turn, CAAATCTTGGCGATGAGT came in with a remaining target (mRNA or protein) (fraction of control) of 0.31.

Regarding CAATTTGCACCTTCTCCT, the remaining target (mRNA or protein) (fraction of control) came out at 0.29.

In the case of ACGACATCATCTTATCTC, the remaining target (mRNA or protein) (fraction of control) is 0.39.

Sequence GATCTCCTTGGACTTGCG registered a remaining target (mRNA or protein) (fraction of control) of 0.33.

On to TATCCAAGTTATCCAGGA, for which the remaining target (mRNA or protein) (fraction of control) came out at 0.48.

In turn, AATTCTGGTTGTAAACTG returned a remaining target (mRNA or protein) (fraction of control) not below 1.

The sequence TAAGGGCTTCTGTTGCTG registered a remaining target (mRNA or protein) (fraction of control) of 0.55.

In turn, GTCGATCTCCTTGGACTT had a remaining target (mRNA or protein) (fraction of control) of 0.65.

TTGTACATCACTGTAGCA registered a remaining target (mRNA or protein) (fraction of control) of 0.41.

CACTTGAGGAAACAAGGA displayed a remaining target (mRNA or protein) (fraction of control) of 0.38.

In turn, CACACGGACAGCACGGAC yielded a remaining target (mRNA or protein) (fraction of control) of 0.77.

Sequence GACCGCGACGGCAGGAAG gave a remaining target (mRNA or protein) (fraction of control) not below 1.

As for TCGCCCGCGCCCAGCAGC, the remaining target (mRNA or protein) (fraction of control) was found to be 0.31.

Take GAAATAGTCTTTGATGCT: the remaining target (mRNA or protein) (fraction of control) turned out to be 0.61.

For the sequence CCGCCGCCTCGCCGCCTC, the remaining target (mRNA or protein) (fraction of control) worked out at 0.33.

As to GGATCCCCTTCAAATTCT, the remaining target (mRNA or protein) (fraction of control) came out at 0.72.

TGCTCGGCCTCGCCACTC gave a remaining target (mRNA or protein) (fraction of control) of 0.52.

AGTGGTGAAGTGGTGGTA gave a remaining target (mRNA or protein) (fraction of control) of 0.43.

Take ACTAAGATTTTCAAGAAG: the remaining target (mRNA or protein) (fraction of control) came out at 0.61.

For TCACGTTGCTGTAGATGG, the remaining target (mRNA or protein) (fraction of control) was not below 1.

For the sequence GCCCGGGTATCAAACGAC, the remaining target (mRNA or protein) (fraction of control) is 0.26.

For the sequence CGCGCCCAGCAGCAGGAT, the remaining target (mRNA or protein) (fraction of control) worked out at 0.75.

In turn, TTGTTGGTTTGAGTTGTC gave a remaining target (mRNA or protein) (fraction of control) not below 1.

On to GCGCTGGTCGAAGTCCTG, for which the remaining target (mRNA or protein) (fraction of control) came out at 0.7.

With GTTTCCTTTCTGATCTCT, the remaining target (mRNA or protein) (fraction of control) is 0.35.

Take AAAGTCGTATTCATGGAT: the remaining target (mRNA or protein) (fraction of control) was not below 1.

For the sequence ATATGAAGCTTCTCTCGA, the remaining target (mRNA or protein) (fraction of control) was found to be 0.42.

Regarding CGGTCATAGGCATTCTGT, the remaining target (mRNA or protein) (fraction of control) is 0.66.

Sequence CAGCTTTCAGCCACAAAC came in with a remaining target (mRNA or protein) (fraction of control) of 0.99.

ATATTGTAAGAAAACCCT gave a remaining target (mRNA or protein) (fraction of control) not below 1.

In turn, GACAGGCATTTGTCGATC displayed a remaining target (mRNA or protein) (fraction of control) not below 1.

For the sequence CATCTGCTTCAGGAAGGT, the remaining target (mRNA or protein) (fraction of control) was determined as 0.55.

For GCTGAAAACCCGGTTATT, the remaining target (mRNA or protein) (fraction of control) was found to be 0.65.

In the case of ACCCTCATACCTTTGATC, the remaining target (mRNA or protein) (fraction of control) was found to be 0.09.

For AGCACACGGACAGCACGG, the remaining target (mRNA or protein) (fraction of control) was found to be 0.51.

Sequence CATCTTGCCGCCGCCGCC had a remaining target (mRNA or protein) (fraction of control) of 0.99.

Sequence TCTTATAGCAGGAAGATA gave a remaining target (mRNA or protein) (fraction of control) not below 1.

On to AGAACAGAATTATGGAGA, for which the remaining target (mRNA or protein) (fraction of control) was found to be 0.31.

For the sequence CCGCTGTCTGCCCATAAT, the remaining target (mRNA or protein) (fraction of control) came to 0.08.

As to AATATTTTACAGATTCAC, the remaining target (mRNA or protein) (fraction of control) was not below 1.

In turn, CGTTTGTTCCGGAAACAT registered a remaining target (mRNA or protein) (fraction of control) of 0.76.

TTGAGGTTGTCATGCAGA yielded a remaining target (mRNA or protein) (fraction of control) of 0.73.

Turning to TATTGATGTCACACTGTC, the remaining target (mRNA or protein) (fraction of control) is 0.48.

GTTGTGATGGAATATAAT returned a remaining target (mRNA or protein) (fraction of control) not below 1.

The sequence CTCCATGTTGTTGGTTTG gave a remaining target (mRNA or protein) (fraction of control) of 0.46.

In turn, GAAAACCCTTGTTTCCAC displayed a remaining target (mRNA or protein) (fraction of control) of 0.33.

TGAGTTGTCTCCCCAGGG yielded a remaining target (mRNA or protein) (fraction of control) not below 1.

Take AGTCCGCCATCTTGCCGC: the remaining target (mRNA or protein) (fraction of control) was not below 1.

Consider TCTGACCACCTACATCAA, for which the remaining target (mRNA or protein) (fraction of control) was 0.2.

In the case of AACAGATCAAAGCCTGCA, the remaining target (mRNA or protein) (fraction of control) came to 0.64.

With CATAGGTCTTTTCCCGAG, the remaining target (mRNA or protein) (fraction of control) is 0.52.

Source of the values: the OligoGym collection.
